Reference: patent US10683299B2, “Pyrazolopyrazine and triazolopyrazine compounds for the treatment of infectious diseases” (Hoffmann-La Roche Inc., priority 2017, dated 2020)

System: HBV replication in HepG2.2.15 cells
Assay: HBV inhibition assay in HepG2.2.15 cells (extracellular HBV DNA by qPCR)
Type: cell-based, Hepatitis B virus
Settings: Hepatitis B virus, HepG2.2.15, 120 h, five days after compound treatment, extracellular HBV DNA in culture supernatant by qPCR, read-out: EC50 (effective compound concentration at which HBV replication was inhibited by 50%)
Source text: HepG2.2.15 is a stably-transfected cell line containing the HBV genome. It is derived from the hepatoblastoma cell line Hep G2 (American Type Culture Collection, ATCC® HB-8065™) by the published procedures described in reference: M A Selles et al. Proc. Natl. Acad. Sci. USA 1987, 84, 1005-1009. The cell line was maintained in Dulbecco's modified Eagle's medium and nutrient mixture F-12 (DMEM/F-12, Gibco, Cat. #: 11320-033) supplemented with 10% fetal bovine serum (Gibco, Cat. #:10099-141), 100 U/mL penicillin, 100 μg/mL streptomycin (Gibco, Cat. #:15140-122), and 0.3 mg/mL of G418 Sulfate (Gibco, Cat. #: 10131-027).
HepG2.2.15 cells were seeded into 96-well plates at a density of 3×10^4 cells per well in culture media of 100 μL DMEM/F-12 supplemented with 2.5% fetal bovine serum, 100 U/mL penicillin, 100 μg/mL streptomycin and cultured overnight at 37° C. The test compounds were serially half-log diluted in DMSO, then diluted 100 times in culture media. 100 μL culture media containing diluted compounds were added into the plates to reach 0.5% final concentration of DMSO in every well. Five days after compound treatment, culture supernatant was collected for further analysis.
For quantitative PCR detection of extracellular HBV DNA, culture supernatant was processed by 500 μg/mL Proteinase K (Sigma, Cat. #:P2308) digestion at 50° C. for 1 hour. After heat inactivation of the enzyme at 95° C. for 15 minutes, the samples were subjected to HBV DNA quantification by qPCR. The effective compound concentration at which HBV replication was inhibited by 50% (EC50) was determined.

How did the EC50 turn out when `C[C@H]1Cn2ncc(N3CCS3(=O)=O)c2CN1C(=O)Nc1cc(F)c(F)c(F)c1` [Example 25, (6S)-3-(1,1-dioxothiazetidin-2-yl)-6-methyl-N-(3,4,5-trifluorophenyl)-6,7-dihydro-4H-pyrazolo[1,5-a]pyrazine-5-carboxamide] was run?
The EC50 was 0.14 µM.

Which EC50 does the source give for `C[C@H]1Cn2ncc(N3CC(O)CNS3(=O)=O)c2CN1C(=O)Nc1cc(F)c(F)c(F)c1` (stereo partly drawn) [Example 26, (6S)-3-(4-hydroxy-1,1-dioxo-1,2,6-thiadiazinan-2-yl)-6-methyl-N-(3,4,5-trifluorophenyl)-6,7-dihydro-4H-pyrazolo[1,5-a]pyrazine-5-carboxamide] here?
The EC50 was 0.13 µM.

How did the EC50 turn out when `C[C@H]1Cn2ncc(N3CCCNS3(=O)=O)c2CN1C(=O)Nc1cc(F)c(F)c(F)c1` [Example 27, (6S)-3-(1,1-dioxo-1,2,6-thiadiazinan-2-yl)-6-methyl-N-(3,4,5-trifluorophenyl)-6,7-dihydro-4H-pyrazolo[1,5-a]pyrazine-5-carboxamide] was run?
The EC50 was 0.044 µM.

`CC1C(O)CS(=O)(=O)N1c1cnn2c1CN(C(=O)Nc1cc(F)c(F)c(F)c1)[C@@H](C)C2` (stereo partly drawn) [Example 28-1, (6S)-3-(4-hydroxy-3-methyl-1,1-dioxo-1,2-thiazolidin-2-yl)-6-methyl-N-(3,4,5-trifluorophenyl)-6,7-dihydro-4H-pyrazolo[1,5-a]pyrazine-5-carboxamide] was tested. Which EC50 did it give?
Its EC50 is 0.021 µM.

For `CC1C(O)CS(=O)(=O)N1c1cnn2c1CN(C(=O)Nc1ccnc(C(F)F)c1)[C@@H](C)C2` (stereo partly drawn) [Example 29, (6S)—N-[2-(difluoromethyl)-4-pyridyl]-3-(4-hydroxy-3-methyl-1,1-dioxo-1,2-thiazolidin-2-yl)-6-methyl-6,7-dihydro-4H-pyrazolo[1,5-a]pyrazine-5-carboxamide], which EC50 is on record?
Its EC50 is 0.32 µM.

How did the EC50 turn out when `CC1C(Oc2ncccn2)CS(=O)(=O)N1c1cnn2c1CN(C(=O)Nc1cc(F)c(F)c(F)c1)[C@@H](C)C2` (stereo partly drawn) [Example 30, (6S)-6-methyl-3-(3-methyl-1,1-dioxo-4-pyrimidin-2-yloxy-1,2-thiazolidin-2-yl)-N-(3,4,5-trifluorophenyl)-6,7-dihydro-4H-pyrazolo[1,5-a]pyrazine-5-carboxamide] was run?
The EC50 was 0.0035 µM.

How did the EC50 turn out when `COC1CS(=O)(=O)N(c2cnn3c2CN(C(=O)Nc2cc(F)c(F)c(F)c2)[C@@H](C)C3)C1C` (stereo partly drawn) [Example 31, (6S)-3-(4-methoxy-3-methyl-1,1-dioxo-1,2-thiazolidin-2-yl)-6-methyl-N-(3,4,5-trifluorophenyl)-6,7-dihydro-4H-pyrazolo[1,5-a]pyrazine-5-carboxamide] was run?
The EC50 was 0.0097 µM.

`COC1CS(=O)(=O)N(c2cnn3c2CN(C(=O)Nc2ccnc(C(F)F)c2)[C@@H](C)C3)C1C` (stereo partly drawn) [Example 32-1, (6S)—N-[2-(difluoromethyl)-4-pyridyl]-3-(4-methoxy-3-methyl-1,1-dioxo-1,2-thiazolidin-2-yl)-6-methyl-6,7-dihydro-4H-pyrazolo[1,5-a]pyrazine-5-carboxamide] was tested. Which EC50 did it give?
The EC50 was 0.17 µM.

For `C[C@H]1Cn2ncc(N3CCCS3(=O)=O)c2CN1C(=O)NCc1ccsc1` [Example 34, (6S)-3-(1,1-dioxo-1,2-thiazolidin-2-yl)-6-methyl-N-(3-thienylmethyl)-6,7-dihydro-4H-pyrazolo[1,5-a]pyrazine-5-carboxamide], which EC50 is on record?
Its EC50 is 0.099 µM.

Which EC50 does the source give for `C[C@H]1Cn2ncc(N3CC(N4CCC[C@H]4C(=O)O)CS3(=O)=O)c2CN1C(=O)Nc1cc(F)c(F)c(F)c1` (stereo partly drawn) [Example 35, (2S)-1-[2-[(6S)-6-methyl-5-[(3,4,5-trifluorophenyl)carbamoyl]-6,7-dihydro-4H-pyrazolo[1,5-a]pyrazin-3-yl]-1,1-dioxo-1,2-thiazolidin-4-yl]pyrrolidine-2-carboxylic Acid] here?
The EC50 was 0.0067 µM.

With `C[C@H]1Cn2ncc(N3CC(c4ccccc4C(=O)O)CS3(=O)=O)c2CN1C(=O)Nc1cc(F)c(F)c(F)c1` (stereo partly drawn) [Example 36, 2-[2-[(6S)-6-methyl-5-[(3,4,5-trifluorophenyl)carbamoyl]-6,7-dihydro-4H-pyrazolo[1,5-a]pyrazin-3-yl]-1,1-dioxo-1,2-thiazolidin-4-yl]benzoic acid] as the molecule, how does the EC50 read?
Its EC50 is 0.017 µM.

Same assay, conditions: five days after compound treatment, extracellular HBV DNA in culture supernatant by qPCR, read-out: EC50 (effective compound concentration at which HBV replication was inhibited by 50%)

With `CC1C(O)CS(=O)(=O)N1c1cnn2c1CN(C(=O)Nc1cc(F)c(F)c(F)c1)[C@@H](C)C2` (stereo partly drawn) [Example 28-2, (6S)-3-(4-hydroxy-3-methyl-1,1-dioxo-1,2-thiazolidin-2-yl)-6-methyl-N-(3,4,5-trifluorophenyl)-6,7-dihydro-4H-pyrazolo[1,5-a]pyrazine-5-carboxamide] as the molecule, how does the EC50 read?
The EC50 was 0.018 µM.
